Data from the NIST ThermoML archive (doi:10.1016/j.jct.2006.10.012).

Experiments:
[1] = Molar enthalpy of transition or fusion; conditions: Crystal; Adiabatic calorimetry

Cc1ccc2nc(C)ccc2c1 [2,6-dimethylquinoline]
Conditions | Molar enthalpy of transition or fusion [kcal/mol]
[1] | 4.88

Liquid
Conditions | vapor or sublimation pressure [kPa]
336.99 K, Inclined piston gauge | 0.0375
339.98 K, Inclined piston gauge | 0.0461
349.98 K, Inclined piston gauge | 0.0877
359.98 K, Inclined piston gauge | 0.1589
369.98 K, Inclined piston gauge | 0.2786
379.97 K, Inclined piston gauge | 0.4711
389.97 K, Inclined piston gauge | 0.7716
399.97 K, Inclined piston gauge | 1.227
404.97 K, Inclined piston gauge | 1.532
409.97 K, Inclined piston gauge | 1.899
411.21 K, Twin ebulliometer | 2
414.96 K, Inclined piston gauge | 2.34
428.45 K, Twin ebulliometer | 3.987
436.24 K, Twin ebulliometer | 5.329
447.73 K, Twin ebulliometer | 7.992
456.33 K, Twin ebulliometer | 10.65
463.33 K, Twin ebulliometer | 13.33
470.57 K, Twin ebulliometer | 16.66
476.57 K, Twin ebulliometer | 19.93
484.49 K, Twin ebulliometer | 25.02
492.47 K, Twin ebulliometer | 31.19
500.45 K, Twin ebulliometer | 38.56
508.5 K, Twin ebulliometer | 47.36
516.61 K, Twin ebulliometer | 57.81
524.76 K, Twin ebulliometer | 70.1
532.96 K, Twin ebulliometer | 84.5
541.22 K, Twin ebulliometer | 101.3
549.51 K, Twin ebulliometer | 120.76
557.86 K, Twin ebulliometer | 143.19
566.25 K, Twin ebulliometer | 168.98
574.7 K, Twin ebulliometer | 198.44
583.18 K, Twin ebulliometer | 231.96
591.71 K, Twin ebulliometer | 269.97

Conditions | Critical temperature [K] | Triple point temperature [K] | mass density [kg/m3]
348.13 K, Liquid | – | – | 995.1
373.12 K, Liquid | – | – | 975.8
398.12 K, Liquid | – | – | 956.9
423.12 K, Liquid | – | – | 938.7
448.11 K, Liquid | – | – | 914.4
473.11 K, Liquid | – | – | 894
498.11 K, Liquid | – | – | 872.2
523.11 K, Liquid | – | – | 849.2
Crystal, Adiabatic calorimetry | – | 330.84 | –
Liquid, DTA | 786 | – | –
